Values of other authors, collected in publication PMC7395068, “The evolution of strategies to minimise the risk of human drug-induced liver injury (DILI) in drug discovery and development” (Archives of Toxicology, 2020).
Like-named read-outs stand apart in the source and are kept apart here.

Conditions: cited from earlier work
[1] = binary in vivo DILI call given beside the severity category, ref Chen 2016
[2] = human DILI concern category (LTKB DILIrank), ref Chen 2016

Row | Compound | DILI +VE (5-8), DILI -VE (-4) [1] | DILI severity category [2] | DILI +VE (5-8), DILI -VE (-4) (in vivo) | DILI severity category (in vivo)
1 | C#CCC(Cc1cnc2nc(N)nc(N)c2n1)c1ccc(C(=O)N[C@@H](CCC(=O)O)C(=O)O)cc1 (stereo partly shown) [pralatrexate] | -VE | Ambiguous DILI-concern |  | 
2 | C[n+]1ccccc1/C=N/O [pralidoxime] | -VE | Ambiguous DILI-concern |  | 
3 | CCO[C@@H]1OC(=O)C[C@@H]1NC(=O)[C@@H]1CCCN2C(=O)CC[C@H](NC(=O)c3nccc4ccccc34)C(=O)N12 [pralnacasan] | +VE | vMost-DILI-Concern |  | 
4 | CCCN[C@H]1CCc2nc(N)sc2C1 [pramipexole] | -VE | Ambiguous DILI-concern |  | 
5 | COc1cc2nc(N3CCN(C(=O)c4ccco4)CC3)nc(N)c2cc1OC [prazosin] |  |  | -VE | Ambiguous DILI-concern
6 | CC(C)c1cccc(C(C)C)c1O [propofol] |  |  | +VE | vLess-DILI-Concern
7 | NC(=O)[C@@H]1CCCN1C(=O)[C@H](Cc1cnc[nH]1)NC(=O)[C@@H]1CCC(=O)N1 [protirelin] |  |  | -VE | vNo-DILI-Concern
8 | Fc1ccccc1C1=NCC(=S)N(CC(F)(F)F)c2ccc(Cl)cc21 [quazepam] | -VE | vNo-DILI-Concern |  | 
9 | OCCOCCN1CCN(C2=Nc3ccccc3Sc3ccccc32)CC1 [quetiapine] | +VE | vLess-DILI-Concern |  | 
10 | COCCCOc1ccnc(C[S+]([O-])c2nc3ccccc3[nH]2)c1C (stereo not shown) [rabeprazole] | +VE | vLess-DILI-Concern |  | 
11 | CCC(=O)NCC[C@@H]1CCc2ccc3c(c21)CCO3 [ramelteon] | -VE | vNo-DILI-Concern |  | 
12 | CCOC(=O)[C@H](CCc1ccccc1)N[C@@H](C)C(=O)N1[C@H](C(=O)O)C[C@@H]2CCC[C@@H]21 [ramipril] |  |  | +VE | vLess-DILI-Concern
13 | C#CCN[C@@H]1CCc2ccccc21 [rasagiline] | -VE | Ambiguous DILI-concern |  | 
14 | CNC(=O)c1cnn(-c2nc(N)c3ncn([C@@H]4O[C@H](CO)[C@@H](O)[C@H]4O)c3n2)c1 [regadenoson] |  |  | -VE | vNo-DILI-Concern
15 | CCOc1cc(CC(=O)N[C@@H](CC(C)C)c2ccccc2N2CCCCC2)ccc1C(=O)O [repaglinide] | +VE | vLess-DILI-Concern |  | 
16 | COC(=O)[C@H]1[C@H]2C[C@@H]3c4[nH]c5cc(OC)ccc5c4CCN3C[C@H]2C[C@@H](OC(=O)c2cc(OC)c(OC)c(OC)c2)[C@@H]1OC [reserpine] | -VE | vNo-DILI-Concern |  | 
17 | CO[C@H]1/C=C/O[C@@]2(C)Oc3c(C)c(O)c4c(c3C2=O)C2=NC3(CCN(CC(C)C)CC3)NC2=C(NC(=O)/C(C)=C\C=C\[C@H](C)[C@H](O)[C@@H](C)[C@@H](O)[C@@H](C)[C@H](OC(C)=O)[C@@H]1C)C4=O [rifabutin] | +VE | vLess-DILI-Concern |  | 
18 | CC(N)C12CC3CC(CC(C3)C1)C2 (stereo not shown) [rimantadine] | -VE | vNo-DILI-Concern |  | 
19 | CCN(C)C(=O)Oc1cccc([C@H](C)N(C)C)c1 [rivastigmine] | +VE | vLess-DILI-Concern |  | 
20 | CN(C)CCc1c[nH]c2ccc(Cn3cncn3)cc12 [rizatriptan] | -VE | vNo-DILI-Concern |  | 
21 | C=CC[N+]1([C@H]2C[C@H]3[C@@H]4CC[C@H]5C[C@H](O)[C@@H](N6CCOCC6)C[C@]5(C)[C@H]4CC[C@]3(C)[C@H]2OC(C)=O)CCCC1 [rocuronium] |  |  | -VE | vNo-DILI-Concern
22 | CCCN(CCC)CCc1cccc2c1CC(=O)N2 [ropinirole] | +VE | vLess-DILI-Concern |  | 
23 | CC(C)(C)NCC(O)c1ccc(O)c(CO)c1 (stereo not shown) [salbutamol] | -VE | vNo-DILI-Concern |  | 
24 | O=C(Oc1ccccc1C(=O)O)c1ccccc1O [salsalate] | +VE | vLess-DILI-Concern |  | 
25 | C=CCC1(C(C)CCC)C(=O)NC(=O)NC1=O (stereo not shown) [secobarbital] | -VE | Ambiguous DILI-concern |  | 

Row | Compound | DILI +VE (5-8), DILI -VE (-4) [1] | DILI severity category [2] | DILI +VE (5-8), DILI -VE (-4) (in vivo) | DILI severity category (in vivo)
26 | CC(C)CC(N(C)C)C1(c2ccc(Cl)cc2)CCC1 (stereo not shown) [sibutramine] |  |  | +VE | vLess-DILI-Concern
27 | C[C@H](Cc1cc2c(c(C(N)=O)c1)N(CCCO)CC2)NCCOc1ccccc1OCC(F)(F)F [silodosin] | -VE | Ambiguous DILI-concern |  | 
28 | CSCC[C@H](NC(=O)[C@H](Cc1ccc(OS(=O)(=O)O)cc1)NC(=O)[C@@H](N)CC(=O)O)C(=O)NCC(=O)N[C@@H](Cc1c[nH]c2ccccc12)C(=O)N[C@@H](CCSC)C(=O)N[C@@H](CC(=O)O)C(=O)N[C@@H](Cc1ccccc1)C(N)=O [sincalide] |  |  | -VE | vNo-DILI-Concern
29 | CO[C@H]1C[C@@H]2CC[C@@H](C)[C@@](O)(O2)C(=O)C(=O)N2CCCC[C@H]2C(=O)O[C@H]([C@H](C)C[C@@H]2CC[C@@H](O)[C@H](OC)C2)CC(=O)[C@H](C)/C=C(\C)[C@@H](O)[C@@H](OC)C(=O)[C@H](C)C[C@H](C)/C=C/C=C/C=C/1C [sirolimus] | +VE | vLess-DILI-Concern |  | 
30 | N[C@@H](CC(=O)N1CCn2c(nnc2C(F)(F)F)C1)Cc1cc(F)c(F)cc1F [sitagliptin] | +VE | vLess-DILI-Concern |  | 
31 | O=C([O-])O.[Na+] [sodium bicarbonate] |  |  | -VE | 
32 | CC(O)C(=O)[O-].[Na+] (stereo not shown) [sodium lactate] |  |  | -VE | vNo-DILI-Concern
33 | O=S([O-])([O-])=S.[Na+].[Na+] [sodium thiosulfate] |  |  | -VE | vNo-DILI-Concern
34 | O=C(O)[C@@H](S)[C@@H](S)C(=O)O [succimer] | +VE | vLess-DILI-Concern |  | 
35 | C[N+](C)(C)CCOC(=O)CCC(=O)OCC[N+](C)(C)C [succinylcholine] | -VE | vNo-DILI-Concern |  | 
36 | CCCCCCCCNC(C)C(O)c1ccc(SC(C)C)cc1 (stereo not shown) [sulcotidil] |  |  | +VE | vMost-DILI-Concern
37 | NC(=O)NS(=O)(=O)c1ccc(N)cc1 [sulfacarbamide] | +VE | vMost-DILI-Concern |  | 
38 | Nc1ccc(S(=O)(=O)Nc2ncccn2)cc1 [sulfadiazine] | +VE | vLess-DILI-Concern |  | 
39 | Nc1ccc(S(=O)(=O)Nc2nccs2)cc1 [sulfathiazole] | +VE | vMost-DILI-Concern |  | 
40 | CN1CC(=O)N2[C@H](c3ccc4c(c3)OCO4)c3[nH]c4ccccc4c3C[C@@H]2C1=O [tadalafil] | -VE | Ambiguous DILI-concern |  | 
41 | CC[C@@H](c1cccc(O)c1)[C@@H](C)CN(C)C [tapentadol] | -VE | vNo-DILI-Concern |  | 
42 | CCCCCNC(=N)N/N=C/c1c[nH]c2ccc(OC)cc12 [tegaserod] | -VE | Ambiguous DILI-concern |  | 
43 | COc1cc([C@@H]2c3cc4c(cc3[C@@H](O[C@@H]3O[C@@H]5CO[C@@H](c6cccs6)O[C@H]5[C@H](O)[C@H]3O)[C@H]3COC(=O)[C@H]23)OCO4)cc(OC)c1O [teniposide] | +VE | vLess-DILI-Concern |  | 
44 | COc1cc2c(cc1OC)C1CC(=O)C(CC(C)C)CN1CC2 (stereo not shown) [tetrabenazine] | -VE | Ambiguous DILI-concern |  | 
45 | C[C@H](O)[C@H](O)[C@H]1CNc2nc(N)[nH]c(=O)c2N1 [tetrahydrobiopterin] | -VE | vNo-DILI-Concern |  | 
46 | O=C1CCC(N2C(=O)c3ccccc3C2=O)C(=O)N1 (stereo not shown) [thalidomide] | +VE | vLess-DILI-Concern |  | 
47 | c1ccc2[nH]c(-c3cscn3)nc2c1 [thiabendazole] | +VE | vMost-DILI-Concern |  | 
48 | S=P(N1CC1)(N1CC1)N1CC1 [thiotepa] | +VE | vLess-DILI-Concern |  | 
49 | Cc1ccsc1C(=CCCN1CCC[C@@H](C(=O)O)C1)c1sccc1C [tiagabine] | -VE | Ambiguous DILI-concern |  | 
